This is an account of results in patent US8791145B2, “Agricultural formulations with acyl morpholines and polar aprotic co-solvents” (Akzo Nobel Chemicals International B.V., priority 2010, dated 2014).

Holding throughout (type): physicochemical
A short description of data set [1]: Differential scanning calorimetry, enthalpy of evaporation. The settings on record: DSC 20° C. to 300° C., 5° C./minute. As for the experimental part:
To monitor the enthalpy of evaporation differential scanning calorimetry was used. The reason for these measurements was to determine the cohesion forces between N-formyl morpholine and propylene carbonate. The mixtures (N-formyl morpholine/propylene carbonate in different ratio) were scanned from 20° C. to 300° C. with a temperature increase of 5° C./minute, using a DSC1 calorimeter from Mettler Toledo with STARe software.
(Differential scanning calorimetry records heat flow against a reference as temperature is scanned.)

Data set [2] can be described thus: Dilution of Amicarbazone formulation in water, ocular inspection. Further details: key: +: No crystals; −: Permanent crystals. The settings on record: 100 g/L diluted to 7 g/L. As for the experimental part: The co-solvents used were propylene carbonate (PC), dimethylformamide (DMF) and ethyl lactate (EL). The amount of each co solvent, in % by weight of the total weight of morpholine and co-solvent, can be seen in table 2. The solutions were diluted in local tap water to an end concentration of 7 g/L and the dilution was judged by ocular inspection with the naked eye, and in the table below the following is used: • + No crystals • − Permanent crystals

Data set [3] in a line: Solubility in acyl morpholines. The settings on record: 23° C. On the procedure: Various agriculturally active ingredients were dissolved in N-formyl morpholine, N-acetyl morpholine and N-propionyl morpholine in order to evaluate the solubility of the active ingredients in the solvents. This was done by adding the active ingredient to a beaker and thereafter adding the solvent until a clear solution was obtained. The solutions were continually stirred at a temperature of 23° C. during the experiments. When everything had been dissolved, the beakers were left without stirring for 24 h to see if the solution was stable (i.e. no crystallization).

`CC1COC(=O)O1` (centres unmarked) [0:100, propylene carbonate] had an Enthalpy of evaporation in data set [1] of 392 J/g.
In the case of `O=CN1CCOCC1` [100:0, 4-formyl morpholine], in data set [1], the Enthalpy of evaporation turned out to be 382 J/g.
With `CC(C)c1nn(C(=O)NC(C)(C)C)c(=O)n1N` [Amicarbazone], the “Crystallization upon dilution in water” value in data set [2] (NAM, 0% DMF) is recorded as “−”; in data set [2] (NAM, 0% EL), “−”; in data set [2] (NAM, 0% PC), “−”; in data set [2] (NAM, 5% DMF), “−”; in data set [2] (NAM, 5% EL) it was “−”; in data set [2] (NAM, 5% PC) it was “−”. For the same compound, the “Crystallization upon dilution in water” value in data set [2] (NAM, 10% DMF) is on record as “−”; in data set [2] (NAM, 10% EL), “−”; in data set [2] (NAM, 10% PC), “−”; in data set [2] (NAM, 20% DMF), “−”; in data set [2] (NAM, 20% EL) it was “−”; in data set [2] (NAM, 20% PC), “−”. Moreover, the “Crystallization upon dilution in water” value in data set [2] (NAM, 30% DMF) is “−”; in data set [2] (NAM, 30% EL), “−”; in data set [2] (NAM, 30% PC), “−”; in data set [2] (NAM, 50% DMF), “−”; in data set [2] (NAM, 50% EL), “−”; in data set [2] (NAM, 50% PC), “−”. In addition, the “Crystallization upon dilution in water” value is given as “+” in data set [2] (NAM, 95% DMF); “−” in data set [2] (NAM, 95% EL); “−” in data set [2] (NAM, 95% PC); “−” in data set [2] (NFM, 0% DMF); “−” in data set [2] (NFM, 0% EL); “−” in data set [2] (NFM, 0% PC). Besides, the “Crystallization upon dilution in water” value in data set [2] (NFM, 5% DMF) is recorded as “−”; in data set [2] (NFM, 5% EL), “−”; in data set [2] (NFM, 5% PC), “−”; in data set [2] (NFM, 10% DMF), “−”; in data set [2] (NFM, 10% EL) it was “−”; in data set [2] (NFM, 10% PC) it was “−”. For the same compound, the “Crystallization upon dilution in water” value is “−” in data set [2] (NFM, 20% DMF); “−” in data set [2] (NFM, 20% EL); “+” in data set [2] (NFM, 20% PC); “−” in data set [2] (NFM, 30% DMF); “−” in data set [2] (NFM, 30% EL); “−” in data set [2] (NFM, 30% PC). Moreover, the “Crystallization upon dilution in water” value is “−” in data set [2] (NFM, 50% DMF); “−” in data set [2] (NFM, 50% EL); “−” in data set [2] (NFM, 50% PC); “+” in data set [2] (NFM, 95% DMF); “−” in data set [2] (NFM, 95% EL); “−” in data set [2] (NFM, 95% PC).
Regarding `COc1c(Cl)ccc(Cl)c1C(=O)O` [Dicamba], in data set [3], the “Dissolution of active ingredient into N-acetyl morpholine (NAM)” value is listed as >100 grams of active ingredient in 100 g solvent, the “Dissolution of active ingredient into N-formyl morpholine (NFM)” value is >100 grams of active ingredient in 100 g solvent and the “Dissolution of active ingredient into N-propionyl morpholine (NPM)” value is reported as >100 grams of active ingredient in 100 g solvent.
In the case of `CC1(C)CCC(Cc2ccc(Cl)cc2)C1(O)Cn1cncn1` (centres unmarked) [Metconazole], in data set [3], the “Dissolution of active ingredient into N-acetyl morpholine (NAM)” value was >25 grams of active ingredient in 100 g solvent, the “Dissolution of active ingredient into N-formyl morpholine (NFM)” value is listed as >25 grams of active ingredient in 100 g solvent and the “Dissolution of active ingredient into N-propionyl morpholine (NPM)” value was >25 grams of active ingredient in 100 g solvent.
